Values joined by “and” are separate entries in the source; they are usually repeats but may differ in a detail not shown here. Identical values can stand only once. Like-named read-outs stand apart in the source and are kept apart here. Marks after values point to notes of the source that are not given here.
Key:
[1] = system: CBRs expressed in DU-145 cells; format: cell-based, human
Protocol: These studies were conducted to determine the effect of chronic exposure of PC-3 and DU-145 cells to cannabinoid ligands with high affinity for non-canonical CBRs on receptor expression. PC-3 or DU-145 cells were seeded into T25 flasks at a density of 1.6 × 10^6 cells in normal medium and cultured at 37 °C with 5% CO2 for 24 h. Following overnight seeding, culture media was aspirated and replaced with serum-free medium containing vehicle or a receptor-saturating concentration (10 μM) of each cannabinoid ligand to be tested. Cells were subsequently cultured at 37 °C with 5% CO2 for an additional 48 h. […] Cells were then centrifuged at 1200 rpm for 10 min, and pellets were stored in −80 °C until future use.
(§1) All binding reactions were conducted in triplicate, in a final volume of 1 mL, and following mixing were incubated for 20 min in a 37 °C water bath to achieve equilibrium. After incubation, reactions were terminated by rapid vacuum filtration through Whatman GF/B glass fiber filters (Brandel; Gaithersburg, MD, USA), followed by three washes of 4 mls of ice-cold filtration buffer (50 mM Tris, pH 7.4, and 0.05% bovine serum albumin). Samples were punched out from filter papers into scintillation vials, to which 4 mls of ScintiverseTM-BDR cocktail scintillation fluid (Fisher Scientific; Hampton, NH, USA) was added. Filters were incubated at room temperature for 24 h in scintillation fluid, vortexed, and radioactivity (measured as DPMs) was quantified via a liquid scintillation spectrophotometer (Tri Carb 2100 TR Liquid Scintillation Analyzer, Packard Instruments, Meriden, CT, USA).

[2] = target: CBRs expressed in PC-3 membranes; format: binding, human
Protocol: (§2) The assay was performed as previously detailed. […] All binding reactions were conducted in triplicate, in a final volume of 1 mL, and, following mixing, were incubated for 20 min in a 37 °C water bath to achieve equilibrium. After incubation, reactions were terminated by rapid vacuum filtration and processed for radioactivity, as detailed in Section 4.5.1.
(§3) Curve-fitting and all statistical analyses were performed using GraphPad Prism® v8.0g (GraphPad Software, Inc.; San Diego, CA, USA). […] For CBR screening studies, a one-sample t-test was performed to determine differences from 100% (e.g., to quantify compounds producing displacement), followed by a one-way ANOVA and Tukey’s post hoc tests to compare displacement produced by all drugs. […] To compare specific CBR affinity (Ki) between ligands, non-linear regression analysis was employed to determine experimental IC50 values from competition receptor binding assays, which were then converted to Ki values using the Cheng–Prusoff equation [35]. Ki values were converted to pKi values so that parametric tests could be used and statistically compared by employing a one-way ANOVA followed by Tukey’s post hoc test. For statistical analyses of [^35S]GTPγS, adenylyl cyclase, and chronic experiments, a one-sample t-test was performed to detect differences from 100% (e.g., basal levels), followed by comparison of all means by a one-way ANOVA and Tukey’s post hoc test. For LDH release, ATP-dependent cell viability and JC-1 staining assays, drug effects were first analyzed by a one-sample t-test to determine differences from 0 or 100% (vehicle), followed by a one-way ANOVA and Dunnett’s post hoc test to compare all means. Significance for all statistical tests was defined at a minimal level of p < 0.05.

[3] = target: CBRs expressed in DU-145 membranes; format: binding, human
Protocol: as §2, §3

[4] = system: CBRs expressed in PC-3 cells; test: Adenylyl cyclase modulation in whole PC-3 cells; format: cell-based, human; conditions: 10 μM, with or without pertussis toxin
Protocol: (§4) These experiments were conducted to examine modulation of adenylyl cyclase activity by cannabinoid ligands in prostate cancer cell lines DU-145 and PC-3, as described earlier. CHO-hCB2, DU-145, or PC-3 cells were seeded into 24 well plates at a density of 8 × 10^6 cells per plate in growth media (DMEM for DU-145 and CHO-hCB2 cells or F12-K for PC-3 cells). Growth media contained FetalPlex (10%) and 1% pennicillin/streptomycin. Cells were cultured overnight in a humidified incubator maintained at 37 °C with 5% CO2. For some experiments, a subset of wells were treated overnight with pertussis toxin (2 μL/mL) to abolish Gi/Go protein-mediated signaling. Following overnight incubation, growth media was replaced with an incubation media containing either DMEM (for DU-145 and CHO-hCB2) or F12-K (for PC-3) with 0.9 g/l NaCl, 2.5 μCi/mL of [^3H]adenine, and 0.5 mM IBMX, and cells were kept in a humidified incubator maintained at 37 °C with 5% CO2 for 4 h. […] Finally, 10 mL of Scintiverse^TM BD Cocktail scintillation fluid (Fisher Scientific; Hampton, NH, USA) was added to eluates and radioactivity (quantified as DPMs) was quantified via a liquid scintillation spectrophotometer (Tri Carb 2100 TR Liquid Scintillation Analyzer, Packard Instruments, Meriden, CT, USA).

[5] = system: DU-145 cells; test: Mitochondrial membrane potential (JC-1 staining), DU-145 cells; format: cell-based, human; conditions: 24 h; for mitochondrial membrane potential (MMP) depolarization: JC-1
[6] = system: CBRs expressed in DU-145 cells; test: Adenylyl cyclase modulation in whole DU-145 cells; format: cell-based, human; conditions: 10 μM, with or without pertussis toxin
Protocol: as §4

[7] = system: CBRs expressed in C6-glioma cells; test: [^3H]CP-55,940 competitive binding screen, C6-glioma membranes; design: species or system mouse; conditions: 1 μM ligand, 0.2 nM radioligand
Protocol: as §1, with “The assay was conducted as previously detailed. […] All” for “All”, “mL, and,” for “mL, and”, “following mixing,” for “following mixing”

Structure (SMILES)	CBR downregulation (reduction of [^3H]WIN-55,212-2 (1 nM) binding) [1] [%]	Ki [2] [nM]	pKi (−log Ki) [2]	Ki [3]	pKi (−log Ki) [3]	change in forskolin-stimulated intracellular cAMP levels [4]	CBR downregulation (reduction of [^3H]WIN-55,212-2 (1 nM) binding) ([1]; DU-145 cells, 10 μM, 48 h, vs vehicle) [%]	mitochondrial membrane potential (MMP) depolarization ([5]; 10 μM)	mitochondrial membrane potential (MMP) depolarization ([5]; 50 μM)	change in forskolin-stimulated intracellular cAMP levels [6]	displacement of [^3H]CP-55,940 [7]	MMP on co-incubation with GW-405833 (10 μM) ([5]; 10 μM ligand co-incubated)
COc1ccc2c(c1)c(CCN1CCOCC1)c(C)n2C(=O)c1cccc(Cl)c1Cl [GW-405833]	55 ± 12.5	296	6.47 ± 0.17 ^b	~290 nM and 290 nM	6.5 ± 0.12 ^b	–	–	–	–	–	–	–
Cc1c(C(=O)c2cccc3ccccc23)c2cccc3c2n1[C@H](CN1CCOCC1)CO3 [WIN-55,212-2]	–	–	–	–	–	neither WIN-55-212-2 nor rimonabant significantly altered intracellular cAMP levels	88.45 ± 5.22	produced effects only at 50 μM	produced effects only at 50 μM	neither WIN-55-212-2 nor rimonabant significantly altered intracellular cAMP levels	neither the non-selective CBR ligand CP-55,940 nor WIN-55,212-2 produced significant displacement	–
Cc1c(C(=O)NN2CCCCC2)nn(-c2ccc(Cl)cc2Cl)c1-c1ccc(Cl)cc1 [rimonabant]	63.75 ± 15.5	54.1	–	102 nM	7.04 ± 0.15 ^a	neither WIN-55-212-2 nor rimonabant significantly altered intracellular cAMP levels	–	reduced MMP	–	neither WIN-55-212-2 nor rimonabant significantly altered intracellular cAMP levels	–	MMP was not significantly reduced from vehicle-treated levels

From article PMC8954350, “Non-Canonical Cannabinoid Receptors with Distinct Binding and Signaling Properties in Prostate and Other Cancer Cell Types Mediate Cell Death” (International Journal of Molecular Sciences, 2022)
